# Experiments:
# [1] = Average particle diameter by BET type specific surface area analyzer; format: physicochemical; conditions: for average particle diameter of the resulting particles: after pulverization; for average particle diameter of the resulting particles / average particle diameter of the starting organic compound: BET method; for average particle diameter of the starting organic compound: before pulverization; for Ave. Diameter after pulverization (nm): as Example 3
# Description: The average particle diameter of the particles can be measured by conventionally used particle size measurement techniques such as a microscopic method, a screening method, a Coulter counter method, a sedimentation method, an air permeation method, and a gas adsorption method, but the average particle diameter according to the present invention means the average particle diameter measured according to a gas adsorption method. The method is based on the principle that when molecules or ions having a known size are adsorbed to the surface of the particles, the particles adsorb the molecules or ion according to the specific surface area. Thus, the method is a method of determining the specific surface area using an adsorption isotherm equation or an isotherm, and calculating the average particle diameter, and the method is excellent as a method for measuring the average particle diameter of finely pulverized particles. Next, the present invention will be described in more detail by way of Examples, but the present invention is not intended to be limited to the following Examples. The measurement of the average particle size was all carried out using a BET type specific surface area analyzer (Macsorb type MH-1201, manufactured by Mountech Co., Ltd.).
# [2] = Crystallinity by X-ray diffraction; format: physicochemical; conditions: D8 Discover X-ray diffraction apparatus
# Description: Each crystallinity of the quinolinone derivative before being finely pulverized, the quinolinone derivative obtained in Example 8 and the quinolinone derivative obtained in Comparative Example 8, was examined using an X-ray diffraction measurement apparatus (D8 Discover, manufactured by Bruker AXS, Inc.
average particle diameter of the resulting particles [1],average particle diameter of the starting organic compound [1],Structure (SMILES),other results
"1,060 nm",–,"COc1ccc2c(c1)c(CC(=O)O)c(C)n2C(=O)c1ccc(Cl)cc1 [Comparative Example 1, indomethacin]",–
570 nm,–,"CC1=C(/C=C/C(C)=C/C=C/C(C)=C/C=C/C=C(C)/C=C/C=C(C)/C=C/C2=C(C)CCCC2(C)C)C(C)(C)CCC1 [Comparative Example 3, β-carotene]",–
730 nm,–,"CCC(=O)OCC(=O)[C@@]1(OC(=O)CC)[C@@H](C)C[C@H]2[C@@H]3CCC4=CC(=O)C=C[C@]4(C)[C@@]3(Cl)[C@@H](O)C[C@@]21C [Comparative Example 5, beclometasone dipropionate]",–
620 nm,–,"CCCCCCCCOc1c(O)c2ccc(NC(=O)C=Cc3cc(OC)c(O)c(OC)c3)cc2n(C)c1=O [Comparative Example 6, 7-(3,5-dimethoxy-4-hydroxycinnamoylamino)-3-octyloxy-4-hydroxy-1-methyl-2(1H)-quinolinone]",–
128 nm,–,"CCCCCCCCOc1c(O)c2ccc(NC(=O)C=Cc3cc(OC)c(O)c(OC)c3)cc2n(C)c1=O [Comparative Example 7, 7-(3,5-dimethoxy-4-hydroxycinnamoylamino)-3-octyloxy-4-hydroxy-1-methyl-2(1H)-quinolinone]",–
651 nm,–,"Clc1ccc(COC(Cn2ccnc2)c2ccc(Cl)cc2Cl)c(Cl)c1 (stereo not drawn) [Comparative Example 8, miconazole]",crystallinity (X-ray diffraction) [2]: amorphous
438 nm,–,"CCC(=O)O[C@]1(C(=O)SCF)[C@H](C)C[C@H]2[C@@H]3C[C@H](F)C4=CC(=O)C=C[C@]4(C)[C@@]3(F)[C@@H](O)C[C@@]21C [Comparative Example 10, fluticasone propionate]",–
558 nm,–,"COc1cc(C(=O)NS(=O)(=O)c2ccccc2C)ccc1Cc1cn(C)c2ccc(NC(=O)OC3CCCC3)cc12 [Comparative Example 13, zafirlukast]",–
"1,900 nm",–,"CC(C)Cc1ccc(C(C)C(=O)O)cc1 (stereo not drawn) [Comparative Example 14, ibuprofen]",–
–,–,"CCCCCCCCOc1c(O)c2ccc(NC(=O)C=Cc3cc(OC)c(O)c(OC)c3)cc2n(C)c1=O [Example 8, 7-(3,5-dimethoxy-4-hydroxycinnamoylamino)-3-octyloxy-4-hydroxy-1-methyl-2(1H)-quinolinone]",crystallinity (X-ray diffraction) [2]: crystalline structures
114 nm,–,"CCC(=O)O[C@]1(C(=O)SCF)[C@H](C)C[C@H]2[C@@H]3C[C@H](F)C4=CC(=O)C=C[C@]4(C)[C@@]3(F)[C@@H](O)C[C@@]21C [Example 17, fluticasone propionate]",–
108 nm,–,"CCC(=O)O[C@]1(C(=O)SCF)[C@H](C)C[C@H]2[C@@H]3C[C@H](F)C4=CC(=O)C=C[C@]4(C)[C@@]3(F)[C@@H](O)C[C@@]21C [Example 18, fluticasone propionate]",–
103 nm,–,"CCC(=O)O[C@]1(C(=O)SCF)[C@H](C)C[C@H]2[C@@H]3C[C@H](F)C4=CC(=O)C=C[C@]4(C)[C@@]3(F)[C@@H](O)C[C@@]21C [Example 19, fluticasone propionate]",–
94 nm,–,"CCC(=O)O[C@]1(C(=O)SCF)[C@H](C)C[C@H]2[C@@H]3C[C@H](F)C4=CC(=O)C=C[C@]4(C)[C@@]3(F)[C@@H](O)C[C@@]21C [Example 20, fluticasone propionate]",–
92 nm,–,"CCC(=O)O[C@]1(C(=O)SCF)[C@H](C)C[C@H]2[C@@H]3C[C@H](F)C4=CC(=O)C=C[C@]4(C)[C@@]3(F)[C@@H](O)C[C@@]21C [Example 21, fluticasone propionate]",–
70 nm,–,"CCC(=O)O[C@]1(C(=O)SCF)[C@H](C)C[C@H]2[C@@H]3C[C@H](F)C4=CC(=O)C=C[C@]4(C)[C@@]3(F)[C@@H](O)C[C@@]21C [Example 22, fluticasone propionate]",–
109 nm,–,"CCC(=O)O[C@]1(C(=O)SCF)[C@H](C)C[C@H]2[C@@H]3C[C@H](F)C4=CC(=O)C=C[C@]4(C)[C@@]3(F)[C@@H](O)C[C@@]21C [Example 23, fluticasone propionate]",–
–,"1,820 nm",CCC(=O)OCC(=O)[C@@]1(OC(=O)CC)[C@@H](C)C[C@H]2[C@@H]3CCC4=CC(=O)C=C[C@]4(C)[C@@]3(Cl)[C@@H](O)C[C@@]21C [beclometasone dipropionate],–
–,"1,060 nm",CC(=O)OCC(=O)[C@@]1(O)CC[C@H]2[C@@H]3CCC4=CC(=O)CC[C@]4(C)[C@H]3C(=O)C[C@@]21C [cortisone acetate],"Ave. Diameter before pulverization (nm) ([1]; cortisone acetate, Example 24): 1,060 nm; Ave. Diameter after pulverization (nm) ([1]; cortisone acetate, polyol Diethylene glycol): 480 nm; Ave. Diameter after pulverization (nm) ([1]; cortisone acetate, polyol Glycerin): 260 nm; Ave. Diameter after pulverization (nm) ([1]; cortisone acetate, polyol Polyethylene glycol): 590 nm; Ave. Diameter after pulverization (nm) ([1]; cortisone acetate, polyol Propylene glycol): 450 nm"
–,"7,850 nm",CCC(=O)O[C@]1(C(=O)SCF)[C@H](C)C[C@H]2[C@@H]3C[C@H](F)C4=CC(=O)C=C[C@]4(C)[C@@]3(F)[C@@H](O)C[C@@]21C [fluticasone propionate],–
–,"18,050 nm",CC(C)Cc1ccc(C(C)C(=O)O)cc1 (stereo not drawn) [ibuprofen],–
–,"3,980 nm",COc1ccc2c(c1)c(CC(=O)O)c(C)n2C(=O)c1ccc(Cl)cc1 [indomethacin],–
–,"10,900 nm",Clc1ccc(COC(Cn2ccnc2)c2ccc(Cl)cc2Cl)c(Cl)c1 (stereo not drawn) [miconazole],–
–,"1,280 nm","CCCCCCCCOc1c(O)c2ccc(NC(=O)C=Cc3cc(OC)c(O)c(OC)c3)cc2n(C)c1=O [quinolinone derivative, 7-(3,5-dimethoxy-4-hydroxycinnamoylamino)-3-octyloxy-4-hydroxy-1-methyl-2(1H)-quinolinone]",crystallinity (X-ray diffraction) [2]: crystalline structures
–,"5,347 nm",COc1cc(C(=O)NS(=O)(=O)c2ccccc2C)ccc1Cc1cn(C)c2ccc(NC(=O)OC3CCCC3)cc12 [zafirlukast],–
–,"1,720 nm",CC1=C(/C=C/C(C)=C/C=C/C(C)=C/C=C/C=C(C)/C=C/C=C(C)/C=C/C2=C(C)CCCC2(C)C)C(C)(C)CCC1 [β-carotene],–

# Reference: US8226983B2, “Method for producing pulverized organic compound particle” (Activus Pharma Co., Ltd., priority 2007, dated 2012)
